# Experimental data as given in ChEMBL document CHEMBL5346920, “Development of the "hidden" multi-target-directed ligands by AChE/BuChE for the treatment of Alzheimer's disease” (Eur J Med Chem, 2023).
# Calls of active or inactive are those of the source. The rule behind the calls is not given here.
# How the values were obtained:
# [1] = target: T1, Acetylcholinesterase (Electrophorus electricus, UniProt O42275); assay: Drug metabolism assessed as electric eel AChE-mediated 3-(4-fluorophenyl)-1-(2-hydroxyphenyl)prop-2-en-1-one formation treated with 0.25U AChE for 9 mins by HPLC analysis; format: ADME; conditions: 0.15 h
# T1 sequence (O42275 whole entry): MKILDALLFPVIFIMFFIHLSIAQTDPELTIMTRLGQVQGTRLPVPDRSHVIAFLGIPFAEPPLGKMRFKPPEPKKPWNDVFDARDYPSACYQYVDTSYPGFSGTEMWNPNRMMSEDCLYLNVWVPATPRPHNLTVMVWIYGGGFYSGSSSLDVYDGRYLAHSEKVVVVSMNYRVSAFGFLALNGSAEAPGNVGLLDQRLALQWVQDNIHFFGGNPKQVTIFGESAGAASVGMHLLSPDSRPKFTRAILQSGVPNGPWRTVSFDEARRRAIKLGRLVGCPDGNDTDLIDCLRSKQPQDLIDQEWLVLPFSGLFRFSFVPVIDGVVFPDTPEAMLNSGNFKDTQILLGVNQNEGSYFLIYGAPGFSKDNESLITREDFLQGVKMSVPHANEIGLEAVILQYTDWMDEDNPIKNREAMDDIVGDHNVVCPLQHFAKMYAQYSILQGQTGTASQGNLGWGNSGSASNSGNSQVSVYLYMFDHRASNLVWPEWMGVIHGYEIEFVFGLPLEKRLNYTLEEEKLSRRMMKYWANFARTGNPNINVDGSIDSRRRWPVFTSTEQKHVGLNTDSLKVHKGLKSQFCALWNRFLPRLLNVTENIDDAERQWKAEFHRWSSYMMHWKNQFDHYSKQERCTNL
# [2] = target: T2, Amine oxidase [flavin-containing] A (Homo sapiens, UniProt P21397); assay: Inhibition of human recombinant MAO-A expressed in baculovirus-infected BTI cells using kynuramine as substrate incubated for 30 mins by fluorescence based analysis
# T2 sequence (P21397 whole entry): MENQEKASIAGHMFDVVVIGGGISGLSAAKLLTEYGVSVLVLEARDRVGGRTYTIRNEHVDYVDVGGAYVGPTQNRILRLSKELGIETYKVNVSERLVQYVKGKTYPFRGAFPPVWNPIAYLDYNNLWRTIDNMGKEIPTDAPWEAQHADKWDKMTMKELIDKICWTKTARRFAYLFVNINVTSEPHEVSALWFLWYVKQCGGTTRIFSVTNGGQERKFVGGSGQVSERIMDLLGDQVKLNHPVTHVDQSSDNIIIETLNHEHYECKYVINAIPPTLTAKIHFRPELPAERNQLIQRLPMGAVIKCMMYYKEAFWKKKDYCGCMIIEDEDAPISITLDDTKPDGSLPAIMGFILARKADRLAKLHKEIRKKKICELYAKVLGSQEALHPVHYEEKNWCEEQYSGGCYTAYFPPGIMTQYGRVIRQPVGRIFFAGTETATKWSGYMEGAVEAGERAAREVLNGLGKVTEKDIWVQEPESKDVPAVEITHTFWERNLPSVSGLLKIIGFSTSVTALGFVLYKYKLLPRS
# [3] = target: T1, Acetylcholinesterase; assay: Drug metabolism assessed as electric eel AChE-mediated 3-(4-fluorophenyl)-1-(2-hydroxyphenyl)prop-2-en-1-one formation treated at 150 mmol/L with 0.25U AChE and measured after 9 mins by HPLC analysis; format: ADME; conditions: 0.15 h
# [4] = target: T3, Cholinesterase (Equus caballus, UniProt P81908); assay: Drug metabolism assessed as equine serum BuChE-mediated 3-(4-fluorophenyl)-1-(2-hydroxyphenyl)prop-2-en-1-one formation with 0.25U BuChE for 9 mins by HPLC analysis; format: ADME, cell-free; conditions: horse, 0.15 h
# T3 sequence (P81908 whole entry): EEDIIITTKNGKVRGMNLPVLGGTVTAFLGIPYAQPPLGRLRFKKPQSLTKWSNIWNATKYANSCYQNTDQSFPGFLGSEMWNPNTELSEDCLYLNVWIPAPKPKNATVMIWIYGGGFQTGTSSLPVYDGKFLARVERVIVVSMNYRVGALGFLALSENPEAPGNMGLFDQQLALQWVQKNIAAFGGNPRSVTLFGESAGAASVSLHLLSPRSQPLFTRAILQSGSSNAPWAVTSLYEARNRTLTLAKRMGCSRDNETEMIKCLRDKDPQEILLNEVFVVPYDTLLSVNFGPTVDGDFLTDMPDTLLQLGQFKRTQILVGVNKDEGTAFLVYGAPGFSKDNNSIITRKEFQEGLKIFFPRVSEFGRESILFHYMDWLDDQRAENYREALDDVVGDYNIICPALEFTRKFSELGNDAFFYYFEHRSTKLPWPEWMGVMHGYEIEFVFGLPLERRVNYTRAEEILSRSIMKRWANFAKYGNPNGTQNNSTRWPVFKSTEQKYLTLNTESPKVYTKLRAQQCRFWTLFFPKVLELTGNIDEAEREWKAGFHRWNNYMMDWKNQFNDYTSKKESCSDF
# [5] = system: PC-12; assay: Neuroprotective activity against Amyloid beta(25 to 35)-induced cell injury in rat PC12 cells assessed as cell viability at 5 uM pretreated for 2 hrs followed by incubation with Abeta(25 to 35) for 24 hrs by CCK-8 assay (reference value: 41 to 58.6%); format: functional; conditions: time 26 hrs, read-out: Activity
# [6] = target: T3, Cholinesterase; assay: Drug metabolism assessed as equine serum BuChE-mediated 3-(4-fluorophenyl)-1-(2-hydroxyphenyl)prop-2-en-1-one formation treated at 150 mmol/L with 0.001U BuChE and measured after 9 mins by HPLC analysis; format: ADME, cell-free; conditions: horse, 0.15 h
# [7] = Acute toxicity in zebra fish assessed as decrease in swim bladder area at 2.5 ug/ml and measured at 120 hpf by microscopic analysis; set-up: species or system Danio rerio; conditions: zebrafish; dose 2.5 µg/ml
# [8] = organism: Danio rerio; assay: Antialzheimer activity against AlCl3-induced Alzheimer's disease zebra fish model assessed as improvement in total distance velocity at 0.0195 ug/ml treated for 24 hrs and measured after 24 hrs; format: functional, organism-based; conditions: dose 0.0195 µg/ml, time 48.0 hrs
# [9] = system: BV-2; assay: Anti-inflammatory activity against LPS-stimulated mouse BV-2 cells assessed as inhibition of LPS-induced IL-1 beta production incubated for 24 hrs in presence of LPS; format: functional, cell-based; conditions: dose 1-9 µM
# [10] = system: BV-2; assay: Anti-inflammatory activity against LPS-stimulated mouse BV-2 cells assessed as inhibition of LPS-induced NO production incubated for 24 hrs in presence of LPS; format: functional, cell-based; conditions: dose 1-9 µM
# [11] = target: T1, Acetylcholinesterase; assay: Drug metabolism assessed as electric eel AChE-mediated 3-(4-fluorophenyl)-1-(2-hydroxyphenyl)prop-2-en-1-one formation treated at 150 mmol/L with 0.001U AChE and measured after 9 mins by HPLC analysis; format: ADME; conditions: 0.15 h
# [12] = system: BV-2; assay: Anti-inflammatory activity against LPS-stimulated mouse BV-2 cells assessed as inhibition of LPS-induced IL-6 production incubated for 24 hrs in presence of LPS; format: functional, cell-based; conditions: dose 1-9 µM
structure (smiles),measurement,setting,value
CCN(C)C(=O)Oc1ccccc1C(=O)/C=C/c1ccc(F)cc1,Km,[1],85.3 µM
same,IC50,[2],38.2 µM
same,Drug metabolism,[3],22.57 mmol/L
same,Km,[4],113 µM
same,viability at 5 µM,[5],70.9%
same,Drug metabolism,[6],2.52 mmol/L
same,Activity,[7],Toxic
same,Activity,[8],Active
same,Activity,[9],Dose-Dependent Effect
same,Activity,[10],Dose-Dependent Effect
same,Drug metabolism,[11],5.56 mmol/L
same,Activity,[12],Dose-Dependent Effect
